Reference: patent US8501755B2, “Tetrahydropyridothienopyrimidine compounds and methods of use thereof” (Bayer Intellectual Property GmbH, priority 2006, dated 2013)

What was measured:
Type in all cases: cell-based
A431 cells = assay: In vitro tumor cell proliferation assay (Cell Titer-Glo) in A431 cells; conditions: Homo sapiens, A-431, 72 h, A431 human epidermoid carcinoma overexpressing HER1; 72 hours exposure; read-out: IC50, activities in A431 cell lines
How it was run: (§1)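 Viability after 72 h drug exposure at 37 °C was read as CellTiter-Glo ATP luminescence, giving IC50. Cells (2.5×10^3/well, RPMI + 10% FBS) were compound-treated one day post-seeding, 0.1% DMSO final: A431 overexpresses HER1, N87 overexpresses HER2 and HER1.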

N87 = assay: In vitro tumor cell proliferation assay (Cell Titer-Glo) in N87 cells; conditions: N87 human gastric carcinoma overexpressing HER2 and HER1; 72 hours exposure; read-out: IC50, activities in N87 cell lines
How it was run: as §1

H1975 cells = assay: In vitro tumor cell proliferation assay (Cell Titer-Glo) in H1975 cells; conditions: NCI-H1975; H1975 human NSCLC expressing mutant HER1 (L858R,T790M); 72 hours exposure; read-out: IC50, activities in H 1975 cell lines
How it was run: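 After 72 h compound exposure at 37° C (top 10 uM down to 64 pM, 0.1% DMSO), viability of EGFR L858R/T790M-mutant H1975 cells was read as ATP luminescence.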

| SMILES | IC50 (A431 cells) [µM] | IC50 (N87) [µM] | IC50 (H1975 cells) [µM] |
| --- | --- | --- | --- |
| O=C(/C=C/CCN1CCCCC1)N1CCc2c(sc3ncnc(Nc4ccc(F)c(Cl)c4)c23)C1 [Example 154, N-(3-chloro-4-fluorophenyl)-7-[(2E)-5-piperidin-1-ylpent-2-enoyl]-5,6,7,8-tetrahydropyrido [4′,3′:4,5]thieno[2,3-d]pyrimidin-4-amine] | 1 to 10 | < 0.2 | 1 to 10 |
| O=C(/C=C/CN1CCCCC1)N1CCc2c(sc3ncnc(Nc4ccc5c(cnn5Cc5ccccc5)c4)c23)C1 [Example 104, N-(1-benzyl-1H-indazol-5-yl)-7-[(2E)-4-piperidin-1-ylbut-2-enoyl]-5,6,7,8-tetrahydropyrido [4′,3′:4,5]thieno[2,3-d]pyrimidin-4-amine] | 0.2 to 1 | < 0.2 | 0.2 to 1 |
| CN(C)C/C=C/C(=O)N1CCc2c(sc3ncnc(Nc4ccc(OCc5cccc(F)c5)c(Cl)c4)c23)C1 [Example 11, N-{3-chloro-4-[(3-fluorobenzyl)oxy]phenyl}-7-[(2E)-4-(dimethylamino)but-2-enoyl]-5,6,7,8-tetrahydropyrido[4′,3′:4,5]thieno[2,3-d]pyrimidin-4-amine] | < 0.2 | < 0.2 | 1 to 10 |
| CCN(CC)C/C=C/C(=O)N1CCc2c(sc3ncnc(Nc4ccc(OCc5cccc(C)n5)c(Cl)c4)c23)C1 [Example 73, N-{3-chloro-4-[(6-methylpyridin-2-yl)methoxy]phenyl}-7-[(2E)-4-(diethylamino)but-2-enoyl]-5,6,7,8-tetrahydropyrido [4′,3′:4,5]thieno[2,3-d]pyrimidin-4-amine] | 1 to 10 | < 0.2 | 1 to 10 |
| C#Cc1cccc(Nc2ncnc3sc4c(c23)CCN(C(=O)/C=C/CN2CCCC2)C4)c1 [Example 26, N-(3-ethynylphenyl)-7-[(2E)-4-pyrrolidin-1-ylbut-2-enoyl]-5,6,7,8-tetrahydropyrido [4′,3′:4,5]thieno[2,3-d]pyrimidin-4-amine] | < 0.2 | < 0.2 | < 0.2 |
| O=C(/C=C/CN1CCOCC1)N1CCc2c(sc3ncnc(Nc4ccc(F)c(Cl)c4)c23)C1 [Example 6, N-(3-chloro-4-fluorophenyl)-7-[(2E)-4-morpholin-4-ylbut-2-enoyl]-5,6,7,8-tetrahydropyrido[4′,3′:4,5]thieno[2,3-d]pyrimidin-4-amine] | < 0.2 | < 0.2 | 1 to 10 |
| CCN(C/C=C/C(=O)N1CCc2c(sc3ncnc(Nc4cccc(Br)c4)c23)C1)C(C)C [Example 204, N-(3-bromophenyl)-7-{(2E)-4-[ethyl(isopropyl)amino]but-2-enoyl}-5,6,7,8-tetrahydropyrido [4′,3′:4,5]thieno[2,3-d]pyrimidin-4-amine] | 0.2 to 1 | < 0.2 | 0.2 to 1 |
| O=C(/C=C/CN1CCCC1)N1CCc2c(sc3ncnc(Nc4ccc(OCc5ccccn5)c(Cl)c4)c23)C1 [Example 24, N-[3-chloro-4-(pyridin-2-ylmelhoxy)phenyl]-7-[(2E)-4-pyrrolidin-1-ylbut-2-enoyl]-5,6,7,8-tetrahydropyrido [4′,3′:4,5]thieno[2,3-d]pyrimidin-4-amine] | 0.2 to 1 | < 0.2 | < 0.2 |
| O=C(/C=C/CN(CCO)CCO)N1CCc2c(sc3ncnc(Nc4ccc(F)c(Cl)c4)c23)C1 [Example 32, 2,2′-{[(2E)-4-{4-[(3-chloro-4-fluorophenyl)amino]-5,8-dihydropyrido [4′,3′:4,5]thieno[2,3-d]pyrimidin-7(6H)-yl}-4-oxobut-2-en-1-yl]imino}diethanol] | 1 to 10 | < 0.2 | 1 to 10 |
| O=C(/C=C/CN1CCCCC1)N1CCc2c(sc3ncnc(Nc4ccc5c(cnn5Cc5cccc(F)c5)c4)c23)C1 [Example 101] | 0.2 to 1 | < 0.2 | 0.2 to 1 |
| CN(C/C=C/C(=O)N1CCc2c(sc3ncnc(Nc4ccc5c(cnn5Cc5ccccc5)c4)c23)C1)C(C)(C)C [Example 126, N-(1-benzyl-1H-indazol-5-yl)-7-{(2E)-4-[tert-butyl(methyl)amino]but-2-enoyl}-5,6,7,8-tetrahydropyrido [4′,3′:4,5]thieno[2,3-d]pyrimidin-4-amine] | < 0.2 | < 0.2 | < 0.2 |
| CN(C)CC#CC(=O)N1CCc2c(sc3ncnc(Nc4ccc(F)c(Cl)c4)c23)C1 [Example 134, N-(3-chloro-4-fluorophenyl)-7-[4-(dimethylamino)but-2-ynoyl]-5,6,7,8-tetrahydropyrido [4′,3′:4,5]thieno[2,3-d]pyrimidin-4-amine] | 0.2 to 1 | < 0.2 | 0.2 to 1 |
| CCN(C)C/C=C/C(=O)N1CCc2c(sc3ncnc(Nc4ccc5c(cnn5Cc5cccc(F)c5)c4)c23)C1 [Example 115, 7-{(2E)-4-[ethyl(methyl)amino]but-2-enoyl}-N-[1-(3-fluorobenzyl)-1H-indazol-5-yl]-5,6,7,8-tetrahydropyrido [4′,3′:4,5]thieno[2,3-d]pyrimidin-4-amine] | < 0.2 | < 0.2 | < 0.2 |
| CN(C)C/C=C/C(=O)N1CCc2c(sc3ncnc(Nc4ccc(C#N)c(Cl)c4)c23)C1 [Example 173, 2-chloro-4-({7-[(2E)-4-(dimethylamino)but-2-enoyl]-5,6,7,8-tetrahydropyrido [4′,3′:4,5]thieno[2,3-d]pyrimidin-4-yl}amino)benzonitrile] | 1 to 10 | < 0.2 | 1 to 10 |
| CN(C)C/C=C/C(=O)N1CCc2c(sc3ncnc(Nc4ccc(OCc5cccnc5)c(Cl)c4)c23)C1 [Example 87, N-[3-chloro-4-(pyridin-3-ylmethoxy)phenyl]-7-[(2E)-4-(dimethylamino)but-2-enoyl]-5,6,7,8-tetrahydropyrido [4′,3′:4,5]thieno[2,3-d]pyrimidin-4-amine] | 0.2 to 1 | < 0.2 | 0.2 to 1 |
| C#Cc1cccc(Nc2ncnc3sc4c(c23)CCN(C(=O)C(=C)CN(CC)CC)C4)c1 [Example 148, 7-{2-[(diethylamino)methyl]acryloyl}-N-(3-ethynylphenyl)-5,6,7,8-tetrahydropyrido [4′,3′:4,5]thieno[2,3-d]pyrimidin-4-amine] | 1 to 10 | < 0.2 | 1 to 10 |
| C#Cc1cccc(Nc2ncnc3sc4c(c23)CCN(C(=O)C#CCCN2CCCCC2)C4)c1 [Example 141, N-(3-ethynylphenyl)-7-(5-piperidin-1-ylpent-2-ynoyl)-5,6,7,8-tetrahydropyrido [4′,3′:4,5]thieno[2,3-d]pyrimidin-4-amine] | 0.2 to 1 | < 0.2 | 0.2 to 1 |
| Cc1cc(Nc2ncnc3sc4c(c23)CCN(C(=O)/C=C/CN(C)C)C4)ccc1Cl [Example 183, N-(4-chloro-3-methylphenyl)-7-[(2E)-4-(dimethylamino)but-2-enoyl]-5,6,7,8-tetrahydropyrido [4′,3′:4,5]thieno[2,3-d]pyrimidin-4-amine] | 0.2 to 1 | < 0.2 | < 0.2 |
| CN(C)C/C=C/C(=O)N1CCc2c(sc3ncnc(Nc4ccc5c(ccn5Cc5cccc(F)c5)c4)c23)C1 [Example 98, 7-[(2E)-4-(dimethylamino)but-2-enoyl]-N-[1-(3-fluorobenzyl)-1H-indol-5-yl]-5,6,7,8-tetrahydropyrido [4′,3′:4,5]thieno[2,3-d]pyrimidin-4-amine] | 0.2 to 1 | < 0.2 | < 0.2 |
